# Assay results reported in patent US10696651B2, “Heterocyclic compound” (Takeda Pharmaceutical Company Limited, priority 2016, dated 2020).
# Key:
# [1] = tested on: human acute lymphoblastic leukemia cells CCRF-CEM; assay: In vivo tumor proliferation inhibitory assay with combined use of asparaginase (CCRF-CEM xenograft); conditions: CCRF-CEM xenograft in SCID mouse; for in vivo tumor proliferation inhibitory rate (%), GCN2 inhibitor: GCN2 inhibitor alone
# Description: One million human acute lymphoblastic leukemia cells CCRF-CEM obtained from ATCC (American Type Culture Collection) were suspended in Matrigel solution (Corning) and implanted subcutaneously into 6-week-old female SCID mouse (CLEA Japan, Inc.) by injection. The mice in which the tumor engrafted to a size of about 200 mm^3 tumor volume after transplantation were selected and 5 mice per group were used for the experiment. A 0.5% methylcellulose suspension of the compound was orally administered twice per day for 9 days. Each compound was administered twice per day and the dose was 10 mg/kg for Example 14 and Example 7, and 6 mg/kg for Example 4. L-asparaginase (Kyowa Hakko Kogyo Co., Ltd.) was subcutaneously administered once per day at a dose of 1000 U/kg. Tumor diameter was measured one day before start of the administration and day 9 of the administration, and the tumor volume was calculated by the formula 1. tumor volume=major axis×minor axis×minor axis×(½) Formula 1
# Tumor proliferation inhibitory rate (%) was calculated by the formula 2. tumor proliferation inhibitory rate (%)=(1−(T9−T0)/(C9−C0))×100 Formula 2 T9: average tumor volume of test drug administration group on day 9 of administration, T0: average tumor volume of test drug administration group one day before start of administration, C9: average tumor volume of control group on day 9 of administration, C0: average tumor volume of control group one day before start of administration
# [2] = tested on: ATF4 expression in human acute lymphoblastic leukemia cell line CCRF-CEM; assay: In vitro ATF4 expression suppression assay (Western blot) in the presence of L-asparaginase; assay type: cell-based; conditions: compound concentration 400 nM, L-asparaginase 0.1 U/mL, 4 hr
# Procedure: A cell suspension (40 μL) (500000 cells/well) of human acute lymphoblastic leukemia cell line CCRF-CEM obtained from ATCC (American Type Culture Collection) was seeded on a 12 well plate using RPMI1640 medium. The seeded cells were incubated (37° C., 5% CO2) overnight to 24 hr at the longest. L-asparaginase (Sigma-Aldrich Co. LLC.) was dissolved in PBS and treated in each well to a final concentration of 0.1 U/mL. Furthermore, each test compound was dissolved (10 mM) in DMSO, delivered to wells by using TECAN HP D300 (TECAN), and the plate was incubated for 4 hr (37° C., 5% CO2). A well without addition of compound was treated similarly as a control group. […]
# (§1) Protein extract solution was subjected to protein quantification with BCA Protein Assay Kit (Thermo Scientific), electrophoresed on 7.5-15% SDS-PAGE gel (DRC), and protein in the gel was transferred to PVDF membrane. […] Thereafter, chemiluminescence was performed using ImmunoStar LD (Wako Pure Chemical Industries, Ltd.), and luminescence intensity was measured by LAS-3000 image analyzer (Fuji Film Co., Ltd.). Furthermore, the expression level of ATF4 was digitized by quantifying the luminescence intensity using Multi Gauge Ver. […]
# [3] = tested on: ATF4 expression in CCRF-CEM tumor; assay: In vivo ATF4 expression suppression assay (Western blot of CCRF-CEM xenograft tumor) in the presence of L-asparaginase; conditions: compound 10 mg/kg oral 8 hr before tumor removal, L-asparaginase 1000 U/kg s.c. 32 hr and 8 hr before, CCRF-CEM xenograft in SCID mouse
# Description: One million human acute lymphoblastic leukemia cell lines CCRF-CEM obtained from ATCC (American Type Culture Collection) were suspended in Matrigel solution (Corning) and implanted subcutaneously into 6-week-old female SCID mouse (CLEA Japan, Inc.) by injection. The mice in which the tumor engrafted to a size of about 200-1000 mm^3 tumor volume after transplantation were selected and 3 mice per group were used for the experiment. L-asparaginase (Kyowa Hakko Kogyo Co., Ltd.) was subcutaneously administered at a dose of 1000 U/kg 32 hr and 8 hr before tumor removal. A 0.5% methylcellulose suspension of the compound was orally administered at a dose of 10 mg/kg 8 hr before tumor removal. After tumor removal, protein was extracted using Lysing Matrix I tube (MP Biomedicals) containing a protein extract (10% glycerol, 1% sodium dodecyl sulfate, 62.5 mM Tris-HCl [pH 7.5], protease and phosphatase inhibitors [Complete mini and PhosSTOP, Sigma-Aldrich Co. LLC.]) and subjected to Western blot.
# as §1, with “membrane. The membrane was blocked with Starting Block T20 (PBS) Blocking Buffer (Thermo Scientific).” for “membrane.”
# Based on the ATF4 expression level of the control group orally administered with 0.5% methylcellulose suspension free of Example compound and the treatment group orally administered with Example compound suspension, the ATF4 expression inhibition ratio (%) of the test compound at a compound dose 10 mg/kg was calculated by the following formula and the results thereof are shown in Table 6. […]
Compound,"in vivo tumor proliferation inhibitory rate (%), GCN2 inhibitor ([1]; 6 mg/kg oral twice per day for 9 days)","in vivo tumor proliferation inhibitory rate (%), combined use ([1]; compound 6 mg/kg oral twice per day for 9 days combined with L-asparaginase 1000 U/kg s.c. once per day)",in vitro ATF4 expression inhibition ratio (%) [2],in vivo ATF4 expression inhibition ratio (%) [3],"in vivo tumor proliferation inhibitory rate (%), GCN2 inhibitor ([1]; 10 mg/kg oral twice per day for 9 days)","in vivo tumor proliferation inhibitory rate (%), combined use ([1]; compound 10 mg/kg oral twice per day for 9 days combined with L-asparaginase 1000 U/kg s.c. once per day)"
"Nc1ncc(C#Cc2c(F)ccc(NS(=O)(=O)c3cc(Cl)cc(CO)c3Cl)c2F)cn1 [Example 4, N-(3-((2-aminopyrimidin-5-yl)ethynyl)-2,4-difluorophenyl)-2,5-dichloro-3-(hydroxymethyl)benzenesulfonamide]",2%,60%,97%,76%,,
"COc1ncc(Cl)cc1S(=O)(=O)Nc1ccc(F)c(C#Cc2cnc(N)nc2)c1F [Example 7, N-(3-((2-aminopyrimidin-5-yl)ethynyl)-2,4-difluorophenyl)-5-chloro-2-methoxypyridine-3-sulfonamide]",,,97%,74%,7%,65%
